In patent US7772263B2, “Compounds for the treatment of inflammatory disorders” (Schering Corporation, priority 2006, dated 2010):

biological target: T1, purified catalytic domain of recombinant human TACE (rhTACEc) (Homo sapiens, UniProt P78536, N452Q/S266A); test: TACE kinetic assay, cleavage of internally quenched fluorescent peptide substrate SPDL-3; assay type: biochemical; settings: Ki (nM), TACE inhibitory activity, rhTACEc 70 pM, 30 μM SPDL-3, 90 min pre-incubation at 25° C.
T1 construct: rhTACEc, Residue 215 to 477 with two mutation (S266A and N4520) and a 6×His tail; 6xHis (C); made in house; host or cells: baculovirus/Hi5 insect cells
T1 sequence (P78536 215-477 S266A/N452Q limits assumed): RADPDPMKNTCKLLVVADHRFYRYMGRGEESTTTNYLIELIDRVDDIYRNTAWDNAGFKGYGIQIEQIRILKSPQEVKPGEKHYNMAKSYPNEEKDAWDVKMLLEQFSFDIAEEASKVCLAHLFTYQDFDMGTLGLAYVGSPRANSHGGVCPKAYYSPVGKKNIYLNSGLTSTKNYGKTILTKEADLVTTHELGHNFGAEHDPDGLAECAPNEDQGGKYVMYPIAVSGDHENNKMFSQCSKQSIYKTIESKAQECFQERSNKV

Row | Compound | Ki
1 | COc1ccc2c(c1)C(=O)N(C[C@@]1(C#Cc3ccccc3F)NC(=O)NC1=O)C2 [Compound 516] | 0.13 nM

same assay, conditions: TACE inhibition, Table 1001; read-out: Ki Rating

Row | Compound | Ki
2 | COc1ccc2c(c1)C(=O)N(C[C@@]1(C#Cc3cccc(=O)[nH]3)NC(=O)NC1=O)C2 [Compound 535] | < 5 nM
3 | COc1ccc2c(c1)C(=O)N(C[C@@]1(C#Cc3ccc(C(F)(F)F)s3)NC(=O)NC1=O)C2 [Compound 529] | < 5 nM
4 | COc1ccc2c(c1)C(=O)N(C[C@@]1(C#Cc3ccc(C)nc3C)NC(=O)NC1=O)C2 [Compound 496] | < 5 nM
5 | COc1ccc2c(c1)C(=O)N(C[C@@]1(C#Cc3ccc(Cl)cc3F)NC(=O)NC1=O)C2 [Compound 499] | < 5 nM
6 | COc1ccc2c(c1)C(=O)N(C[C@@]1(C#Cc3cc(F)cc(F)c3)NC(=O)NC1=O)C2 [Compound 448] | < 5 nM
7 | COc1ccc2c(c1)C(=O)N(C[C@@]1(C#Cc3ccccc3C(C)C)NC(=O)NC1=O)C2 [Compound 904] | < 5 nM
8 | COc1ccc2c(c1)C(=O)N(C[C@@]1(C#Cc3cnc4nc(N)c(C#N)cc4c3)NC(=O)NC1=O)C2 [Compound 944] | < 5 nM
9 | COc1ccc2c(c1)C(=O)N(C[C@@]1(C#Cc3cncc(N)c3)NC(=O)NC1=O)C2 [Compound 554] | < 5 nM
10 | O=C1NC(=O)[C@@](C#Cc2ccc(F)cc2F)(CN2Cc3ccc(OC(F)F)cc3C2=O)N1 [Compound 905] | < 5 nM
11 | COc1ccc2c(c1)C(=O)N(C[C@@]1(C#Cc3ccccc3F)NC(=O)NC1=O)C2 [Compound 516] | < 5 nM
12 | COc1ccc2c(c1)C(=O)N(C[C@@]1(C#Cc3cc(F)c(Cl)c(F)c3)NC(=O)NC1=O)C2 [Compound 938] | < 5 nM
13 | COc1ccc2c(c1)C(=O)N(C[C@@]1(C#Cc3cc(C)c4nn(C)cc4c3)NC(=O)NC1=O)C2 [Compound 527] | < 5 nM
14 | COc1ccc2c(c1)C(=O)N(C[C@@]1(C#Cc3cscn3)NC(=O)NC1=O)C2 [Compound 455] | < 5 nM
15 | COc1ccc2c(c1)C(=O)N(C[C@@]1(C#Cc3cccc(OC(F)(F)F)c3)NC(=O)NC1=O)C2 [Compound 429] | < 5 nM
16 | COc1ccc2c(c1)C(=O)N(C[C@]1(C#Cc3ccc4ncccc4c3)NC(=O)NC1=O)C2 [Compound 968] | 25 to 100 nM
17 | COc1ccc2c(c1)C(=O)N(C[C@@]1(C#Cc3cncc4cccnc34)NC(=O)NC1=O)C2 [Compound 955] | < 5 nM
18 | COc1ccc2c(c1)C(=O)N(C[C@@]1(C#Cc3cnccc3N)NC(=O)NC1=O)C2 [Compound 920] | < 5 nM
19 | COc1ccc2c(c1)C(=O)N(C[C@@]1(C#Cc3cncc(-c4cnn(C)c4)c3)NC(=O)NC1=O)C2 [Compound 409C] | < 5 nM

Row | Compound | Ki
20 | COc1ccc2c(c1)C(=O)N(C[C@@]1(C#Cc3cc(Cl)ccc3F)NC(=O)NC1=O)C2 [Compound 518] | < 5 nM
21 | COc1ccc2c(c1)C(=O)N(C[C@@]1(C#Cc3ncccc3N)NC(=O)NC1=O)C2 [Compound 928] | < 5 nM
22 | COc1ccc2c(c1)C(=O)N(C[C@@]1(C#Cc3cccnc3)NC(=O)NC1=O)C2 [Compound 400B] | < 5 nM
23 | COc1ccc2c(c1)C(=O)N(C[C@@]1(C#Cc3ccc4ncccc4c3)NC(=O)NC1=O)C2 [Compound 933] | < 5 nM
24 | COc1ccc2c(c1)C(=O)N(C[C@@]1(C#Cc3ccc(C)cc3F)NC(=O)NC1=O)C2 [Compound 500] | < 5 nM
25 | COc1ccc2c(c1)C(=O)N(C[C@@]1(C#Cc3ccc(F)cc3Cl)NC(=O)NC1=O)C2 [Compound 433] | < 5 nM
26 | COc1ccc2c(c1)C(=O)N(C[C@@]1(C#Cc3ccc4nn(C)cc4c3)NC(=O)NC1=O)C2 [Compound 421] | < 5 nM
27 | O=C1NC(=O)[C@@](C#Cc2cccc(F)c2)(CN2Cc3ccc(Cl)cc3C2=O)N1 [Compound 1003C] | < 5 nM
28 | COc1ccc2c(c1)C(=O)N(C[C@@]1(C#Cc3ccc(C(=O)NC4CC4)o3)NC(=O)NC1=O)C2 [Compound 901] | < 5 nM
29 | COc1ccc2c(c1)C(=O)N(C[C@@]1(C#Cc3cnc4[nH]cnc4c3)NC(=O)NC1=O)C2 [Compound 960] | < 5 nM
30 | COc1ccc2c(c1)C(=O)N(C[C@@]1(C#Cc3cc(C)c4c(cnn4C)c3)NC(=O)NC1=O)C2 [Compound 524] | < 5 nM
31 | COc1ccc2c(c1)C(=O)N(C[C@@]1(C#Cc3ccc(Cl)c(F)c3)NC(=O)NC1=O)C2 [Compound 452] | < 5 nM
32 | COc1ccc2c(c1)C(=O)N(C[C@@]1(C#Cc3cccnc3N)NC(=O)NC1=O)C2 [Compound 930] | < 5 nM
33 | COc1ccc2c(c1)C(=O)N(C[C@@]1(C#Cc3ccc(S(N)(=O)=O)cc3)NC(=O)NC1=O)C2 [Compound 946] | < 5 nM
34 | CNc1nc2ccc(C#C[C@]3(CN4Cc5ccc(OC)cc5C4=O)NC(=O)NC3=O)cc2s1 [Compound 412D] | < 5 nM
35 | COc1ccc2c(c1)C(=O)N(C[C@@]1(C#Cc3ccc4nc(N)sc4c3)NC(=O)NC1=O)C2 [Compound 494] | < 5 nM
36 | COc1ccc2c(c1)C(=O)N(C[C@]1(C#Cc3nc4ccccc4s3)NC(=O)NC1=O)C2 [Compound 965] | 25 to 100 nM
37 | O=C1NC(=O)[C@@](C#Cc2cccnc2)(CN2Cc3ccc(Cl)cc3C2=O)N1 [Compound 1004] | < 5 nM

same assay, conditions: TACE; class letters A-D; read-out: Ki Rating

Row | Compound | Ki
38 | COc1ccc2c(c1)C(=O)N(C[C@@]1(C#Cc3ccc(-c4nnc(N)o4)nc3)NC(=O)NC1=O)C2 [Compound 1501] | < 5 nM
39 | COc1ccc2c(c1)C(=O)N(C[C@@]1(C#Cc3ccc(OC4SC(=O)NC4=O)cc3)NC(=O)NC1=O)C2 (some centres unmarked) [Compound 1574] | < 5 nM
40 | COc1ccc2c(c1)C(=O)N(C[C@@]1(C#Cc3ccc4c(c3)CNC4=O)NC(=O)NC1=O)C2 [Compound 1253] | < 5 nM
41 | COc1ccc2c(c1)C(=O)N(C[C@@]1(C#Cc3ccc(S(C)(=O)=O)cc3)NC(=O)NC1=O)C2 [Compound 1220C] | > 100 nM
42 | COc1ccc2c(c1)C(=O)N(C[C@@]1(C#Cc3ccc(C(C)=O)cc3)NC(=O)NC1=O)C2 [Compound 1220B] | < 5 nM
43 | CCOc1ccc(C#C[C@]2(CN3Cc4ccc(OC)cc4C3=O)NC(=O)NC2=O)cc1 [Compound 1050] | < 5 nM
44 | COc1ccc2c(c1)C(=O)N(C[C@@]1(C#Cc3ccc4[nH]c(=O)[nH]c4c3)NC(=O)NC1=O)C2 [Compound 1069] | < 5 nM
45 | COc1ccc2c(c1)C(=O)N(C[C@@]1(C#Cc3ccc4[nH]ncc4c3)NC(=O)NC1=O)C2 [Compound 1523] | < 5 nM
46 | CNCc1cc(C#C[C@@]2(CN3Cc4ccc(OC)cc4C3=O)NC(=O)NC2=O)cs1 [Compound 1077] | < 5 nM
47 | COc1ccc2c(c1)C(=O)N(C[C@@]1(C#Cc3sccc3Cl)NC(=O)NC1=O)C2 [Compound 1080] | < 5 nM
48 | COc1ccc2c(c1)C(=O)N(C[C@]1(C#Cc3ccc(C#N)s3)NC(=O)NC1=O)C2 [Compound 1068] | > 100 nM
49 | COc1ccc2c(c1)C(=O)N(C[C@@]1(C#Cc3cnc4[nH]c(=O)[nH]c4c3)NC(=O)NC1=O)C2 [Compound 1013] | < 5 nM
50 | COc1ccc2c(c1)C(=O)N(C[C@@]1(C#Cc3ccc(NC(C)=O)nc3)NC(=O)NC1=O)C2 [Compound 1157] | < 5 nM
51 | COc1ccc2c(c1)C(=O)N(C[C@@]1(C#Cc3cc(F)c(F)cc3OC)NC(=O)NC1=O)C2 [Compound 1217] | < 5 nM
52 | COc1ccc2c(c1)C(=O)N(C[C@@]1(C#Cc3ccc(C)cc3)NC(=O)NC1=O)C2 [Compound 1156] | < 5 nM
53 | COc1ccc2c(c1)C(=O)N(C[C@]1(C#Cc3ccc4[nH]ccc4c3)NC(=O)NC1=O)C2 [Compound 1130] | 5 to 25 nM

Row | Compound | Ki
54 | COc1ccc2c(c1)C(=O)N(C[C@@]1(C#Cc3ccc4nc(C)[nH]c4c3)NC(=O)NC1=O)C2 [Compound 1011] | < 5 nM
55 | COc1ccc2c(c1)C(=O)N(C[C@@]1(C#Cc3ccc(-c4ncc[nH]4)cc3)NC(=O)NC1=O)C2 [Compound 1136] | < 5 nM
56 | COc1ccc2c(c1)CN(C[C@@]1(C#Cc3ccc(F)cc3F)NC(=O)NC1=O)C2=O [Compound 1202] | < 5 nM
57 | COc1ccc2c(c1)C(=O)N(C[C@@]1(C#Cc3ccc4c(c3)C(=O)NC4=O)NC(=O)NC1=O)C2 [Compound 1019] | < 5 nM
58 | O=C1NC(=O)[C@@](C#Cc2ccc(F)cc2)(CN2Cc3ccc(F)cc3C2=O)N1 [Compound 1037] | < 5 nM
59 | COc1ccc2c(c1)C(=O)N(C[C@@]1(C#Cc3ccc(C(=O)NC4CC4)cc3)NC(=O)NC1=O)C2 [Compound 1065] | < 5 nM
60 | CO/N=C(\C)c1ccc(C#C[C@]2(CN3Cc4ccc(OC)cc4C3=O)NC(=O)NC2=O)s1 [Compound 1083] | < 5 nM
61 | COc1ccc2c(c1Br)C(=O)N(CC1(C#Cc3cccnc3)NC(=O)NC1=O)C2 (centres unmarked) [Compound 1564] | 5 to 25 nM
62 | COc1ccc2c(c1)C(=O)N(C[C@@]1(C#Cc3ccc(C=NO)cc3)NC(=O)NC1=O)C2 [Compound 1091] | < 5 nM
63 | COc1ccc2c(c1)C(=O)N(C[C@@]1(C#Cc3ccc(C(C)=NO)s3)NC(=O)NC1=O)C2 [Compound 1090] | < 5 nM
64 | COc1ccc2c(c1)C(=O)N(C[C@@]1(C#Cc3ccc(-c4nnc(C)o4)nc3)NC(=O)NC1=O)C2 [Compound 1500] | < 5 nM
65 | COc1ccc2c(c1)C(=O)N(C[C@@]1(C#Cc3ccc(C(C)=O)s3)NC(=O)NC1=O)C2 [Compound 1060] | < 5 nM
66 | COC(=O)c1cc(C#C[C@]2(CN3Cc4ccc(OC)cc4C3=O)NC(=O)NC2=O)ccn1 [Compound 1511] | < 5 nM
67 | COc1ccc2c(c1)C(=O)N(C[C@@]1(C#Cc3c[nH]c(=O)[nH]c3=O)NC(=O)NC1=O)C2 [Compound 1205] | < 5 nM
68 | COc1ccc2c(c1)C(=O)N(C[C@@]1(C#Cc3cccc(C4(C)NC(=O)NC4=O)c3)NC(=O)NC1=O)C2 (some centres unmarked) [Compound 1556] | < 5 nM
69 | COc1ccc2c(c1)C(=O)N(C[C@@]1(C#Cc3cnc4c(c3)CCC(=O)N4)NC(=O)NC1=O)C2 [Compound 1568] | < 5 nM

same assay, conditions: rhTACEc 70 pM, 30 μM SPDL-3, 90 min pre-incubation at 25° C.; read-out: Ki (nM), TACE inhibitory activity

Row | Compound | Ki
70 | COc1ccc2c(c1)C(=O)N(C[C@@]1(C#Cc3ccc4scnc4c3)NC(=O)NC1=O)C2 [Compound 972] | 0.12 nM
71 | COc1ccc2c(c1)C(=O)N(C[C@@]1(C#Cc3cncc(N)c3)NC(=O)NC1=O)C2 [Compound 554] | 0.31 nM
72 | COc1ccc2c(c1)C(=O)N(C[C@@]1(C#Cc3cccnc3)NC(=O)NC1=O)C2 [Compound 400B] | 0.44 nM
73 | COc1ccc2c(c1)C(=O)N(C[C@@]1(C#Cc3cccnc3N)NC(=O)NC1=O)C2 [Compound 930] | 0.56 nM
74 | COc1ccc2c(c1)C(=O)N(C[C@@]1(C#Cc3ccc(C(C)=NO)s3)NC(=O)NC1=O)C2 [Compound 1090] | 0.3 nM
